Measurements reported in PubChem BioAssay AID2060906 (Molecular Pharmacology Branch, DTP, NCI, 2025).

System: 485176-168-R4-J1-PDC complex spheroid growth
Assay: Anticancer human tumor 485176-168-R4-J1-PDC patient-derived pancreatic adenocarcinoma cell line growth inhibition [RAS]
Details: for IC50: curve of first compound; for viability, T/C: stronger effect = lower value; active = viability on the fitted dose curve at most 10% of control; inactive = the rest
Method in brief: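 Multi-cell-type spheroids: tumor cells plus HUVEC endothelial cells and mesenchymal stem cells. RAS-pathway inhibitors were combined with targeted agents, each dosed in half-log steps down from clinical Cmax, or from 10 microM when Cmax was unknown.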

[1] = second compound 0.0316 µM, first compound 0.0316 µM
[2] = second compound 0.0316 µM, first compound 0.1 µM
[3] = second compound 0.0316 µM, first compound 0.316 µM
[4] = second compound 0.0316 µM, first compound 1 µM
[5] = second compound 0.0316 µM, first compound 3.16 µM
[6] = second compound 0.0316 µM, first compound 10 µM
[7] = second compound 0.1 µM, first compound 0.0316 µM
[8] = second compound 0.1 µM, first compound 0.1 µM
[9] = second compound 0.1 µM, first compound 0.316 µM
[10] = second compound 0.1 µM, first compound 1 µM
[11] = second compound 0.1 µM, first compound 3.16 µM
[12] = second compound 0.1 µM, first compound 10 µM
[13] = second compound 0.316 µM, first compound 0.0316 µM
[14] = second compound 0.316 µM, first compound 0.1 µM
[15] = second compound 0.316 µM, first compound 0.316 µM
[16] = second compound 0.316 µM, first compound 1 µM
[17] = second compound 0.316 µM, first compound 3.16 µM
[18] = second compound 0.316 µM, first compound 10 µM
[19] = second compound 1 µM, first compound 0.0316 µM
[20] = second compound 1 µM, first compound 0.1 µM
[21] = second compound 1 µM, first compound 0.316 µM
[22] = second compound 1 µM, first compound 1 µM
[23] = second compound 1 µM, first compound 3.16 µM
[24] = second compound 1 µM, first compound 10 µM
[25] = second compound 3.16 µM, first compound 0.0316 µM
[26] = second compound 3.16 µM, first compound 0.1 µM
[27] = second compound 3.16 µM, first compound 0.316 µM
[28] = second compound 3.16 µM, first compound 1 µM
[29] = second compound 10 µM, first compound 0.0316 µM
[30] = second compound 10 µM, first compound 0.1 µM
[31] = second compound 10 µM, first compound 0.316 µM
[32] = second compound 10 µM, first compound 1 µM
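Also: spheroids exposed to compounds for seven days before readout.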
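For viability, T/C in this document: luminescence viability expressed relative to DMSO vehicle wells set as 100%.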

CCC(CC)c1cc(NC2CCC(N)C2)n2nccc2n1 (stereo unspecified) + C=CC(=O)N1CCN(c2nc(OCC3CCCN3C)nc3c(F)c(-c4nc(N)cc(C)c4C(F)(F)F)c(Cl)cc23)C(C)C1
1680 nM: IC50 (second compound 0.1 µM)
1460 nM: IC50 (second compound 0.0316 µM) | IC50 (second compound 1 µM)
1540 nM: IC50 (second compound 0.00316 µM)
1450 nM: IC50 (second compound 0.01 µM)
inactive: viability, T/C (second compound 0.00316 µM, first compound 0.0316 µM) 103% | viability, T/C (second compound 0.00316 µM, first compound 0.1 µM) 101% | viability, T/C (second compound 0.00316 µM, first compound 0.316 µM) 102% | viability, T/C (second compound 0.00316 µM, first compound 1 µM) 78.5% | viability, T/C (second compound 0.01 µM, first compound 0.0316 µM) 111% | viability, T/C (second compound 0.01 µM, first compound 0.1 µM) 98.3% | viability, T/C (second compound 0.01 µM, first compound 0.316 µM) 77.1% | viability, T/C (second compound 0.01 µM, first compound 1 µM) 72.9% | viability, T/C [1] 101% | viability, T/C [2] 103% | viability, T/C [3] 103% | viability, T/C [4] 72.9% | viability, T/C [7] 97.7% | viability, T/C [8] 104% | viability, T/C [9] 93.3% | viability, T/C [10] 88.8% | viability, T/C [13] 87.8% | viability, T/C [14] 93.5% | viability, T/C [15] 95.3% | viability, T/C [16] 76.2% | viability, T/C [19] 94.8% | viability, T/C [20] 110% | viability, T/C [21] 89.6% | viability, T/C [22] 73.3%
active: viability, T/C (second compound 0.00316 µM, first compound 3.16 µM) 3.09% | viability, T/C (second compound 0.00316 µM, first compound 10 µM) 0.53% | viability, T/C (second compound 0.01 µM, first compound 3.16 µM) 3.14% | viability, T/C (second compound 0.01 µM, first compound 10 µM) 0.53% | viability, T/C [5] 2.99% | viability, T/C [6] 0.57% | viability, T/C [11] 3.12% | viability, T/C [12] 0.5% | viability, T/C [17] 3.3% | viability, T/C [18] 0.53% | viability, T/C [23] 2.65% | viability, T/C [24] 0.64%
1510 nM: IC50 (second compound 0.316 µM)

CC(Nc1ccc2c(c1)OCCn1cc(N3C(=O)OCC3C(F)F)nc1-2)C(N)=O (stereo unspecified) + C#Cc1c(F)ccc2cc(O)cc(-c3ncc4c(N5CC6CCC(C5)N6)nc(OCC56CCCN5CC(F)C6)nc4c3F)c12
inactive: viability, T/C [1] 97.5% | viability, T/C [2] 86.5% | viability, T/C [3] 91.8% | viability, T/C [4] 83.5% | viability, T/C [5] 59.1% | viability, T/C [6] 65.4% | viability, T/C [7] 114% | viability, T/C [8] 98.6% | viability, T/C [9] 71.9% | viability, T/C [10] 70.8% | viability, T/C [11] 69.4% | viability, T/C [12] 50% | viability, T/C [13] 92.5% | viability, T/C [14] 75% | viability, T/C [15] 88.8% | viability, T/C [16] 79.4% | viability, T/C [17] 75.3% | viability, T/C [18] 54.8% | viability, T/C [19] 107% | viability, T/C [20] 81.1% | viability, T/C [21] 85.8% | viability, T/C [22] 90.5% | viability, T/C [23] 78% | viability, T/C [24] 56.6% | viability, T/C [25] 107% | viability, T/C [26] 94.2% | viability, T/C [27] 85.8% | viability, T/C [28] 79.9% | viability, T/C (second compound 3.16 µM, first compound 3.16 µM) 53.4% | viability, T/C (second compound 3.16 µM, first compound 10 µM) 56.5% | viability, T/C [29] 91.7% | viability, T/C [30] 88.9% | viability, T/C [31] 67.7% | viability, T/C [32] 71.4% | viability, T/C (second compound 10 µM, first compound 3.16 µM) 72.1% | viability, T/C (second compound 10 µM, first compound 10 µM) 44%
> 10000 nM: IC50 (second compound 0.0316 µM) | IC50 (second compound 0.1 µM) | IC50 (second compound 0.316 µM) | IC50 (second compound 1 µM) | IC50 (second compound 3.16 µM) | IC50 (second compound 10 µM)

C=CC(=O)Nc1cc(Nc2nccc(-c3cn(C)c4ccccc34)n2)c(OC)cc1N(C)CCN(C)C + C#Cc1c(F)ccc2cc(O)cc(-c3ncc4c(N5CC6CCC(C5)N6)nc(OCC56CCCN5CC(F)C6)nc4c3F)c12
> 1000 nM: IC50 (second compound 0.0316 µM) | IC50 (second compound 0.1 µM) | IC50 (second compound 0.316 µM) | IC50 (second compound 1 µM) | IC50 (second compound 3.16 µM) | IC50 (second compound 10 µM)
inactive: viability, T/C (second compound 0.0316 µM, first compound 0.00316 µM) 103% | viability, T/C (second compound 0.0316 µM, first compound 0.01 µM) 90.8% | viability, T/C [1] 99% | viability, T/C [2] 80.7% | viability, T/C [3] 88.9% | viability, T/C [4] 66.7% | viability, T/C (second compound 0.1 µM, first compound 0.00316 µM) 115% | viability, T/C (second compound 0.1 µM, first compound 0.01 µM) 109% | viability, T/C [7] 92.7% | viability, T/C [8] 92.9% | viability, T/C [9] 86.6% | viability, T/C [10] 66.8% | viability, T/C (second compound 0.316 µM, first compound 0.00316 µM) 82.5% | viability, T/C (second compound 0.316 µM, first compound 0.01 µM) 83.1% | viability, T/C [13] 99% | viability, T/C [14] 100% | viability, T/C [15] 88.4% | viability, T/C [16] 62.3% | viability, T/C (second compound 1 µM, first compound 0.00316 µM) 95.8% | viability, T/C (second compound 1 µM, first compound 0.01 µM) 80.8% | viability, T/C [19] 91% | viability, T/C [20] 96.1% | viability, T/C [21] 85.2% | viability, T/C [22] 64.4% | viability, T/C (second compound 3.16 µM, first compound 0.00316 µM) 106% | viability, T/C (second compound 3.16 µM, first compound 0.01 µM) 89.5% | viability, T/C [25] 96.7% | viability, T/C [26] 75.6% | viability, T/C [27] 70.7% | viability, T/C [28] 68.5% | viability, T/C (second compound 10 µM, first compound 0.00316 µM) 100% | viability, T/C (second compound 10 µM, first compound 0.01 µM) 86.6% | viability, T/C [29] 85.3% | viability, T/C [30] 103% | viability, T/C [31] 84% | viability, T/C [32] 61.9%
